Legend:
Assay in all cases: area under the viability dose-response curve (AUC) (AUC (arbitrary units, max 500 = no viability loss)); higher = less sensitive (higher viability)
Conditions in all cases: exposure time: 120 h; concentration range: 0.1 nM - 10 µM, 6 doses
[1] = tested on: 3E (embryonal-type hepatoblastoma organoid)
Description: (§1)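 Patient-derived hepatoblastoma tumor organoids (about 50 organoids per well, 384-well plates, medium with 5% BME) were treated with the PMC pediatric cancer drug library. Each drug was tested in duplicate at 6 concentrations (0.1 nM to 10 µM, 10-fold steps).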

[2] = tested on: 135F2 (fetal-II hepatoblastoma organoid with high liver markers)
Description: as §1

[3] = tested on: 96F1 (fetal-I hepatoblastoma organoid with intermediate liver markers)
Description: as §1

[4] = tested on: 17F1 (fetal-I hepatoblastoma organoid with intermediate liver markers)
Description: as §1

[5] = tested on: 22E (embryonal-type hepatoblastoma organoid)
Description: as §1

[6] = tested on: 27F1 (fetal-I hepatoblastoma organoid with intermediate liver markers)
Description: as §1

[7] = tested on: 17E (embryonal-type hepatoblastoma organoid)
Description: as §1

[8] = tested on: 13E (embryonal-type hepatoblastoma organoid)
Description: as §1

[9] = tested on: 10F2 (fetal-II hepatoblastoma organoid with high liver markers)
Description: as §1

[10] = tested on: 8F1 (fetal-I hepatoblastoma organoid with intermediate liver markers)
Description: as §1

[11] = tested on: 13F2 (fetal-II hepatoblastoma organoid with high liver markers)
Description: as §1

SMILES | area under the viability dose-response curve [1] | area under the viability dose-response curve [2] | area under the viability dose-response curve [3] | area under the viability dose-response curve [4] | area under the viability dose-response curve [5] | area under the viability dose-response curve [6] | area under the viability dose-response curve [7] | area under the viability dose-response curve [8] | area under the viability dose-response curve [9] | area under the viability dose-response curve [10] | area under the viability dose-response curve [11]
CNC(=O)c1cc(Oc2ccc(NC(=O)Nc3ccc(Cl)c(C(F)(F)F)c3)cc2)ccn1 [Sorafenib] | 448 | 431 | 459 | 448 | 452 | 458 | 437 | 454 | 443 | 453 | 440
CC(C)NC[C@@H](C(=O)N1CCN(c2ncnc3c2[C@H](C)C[C@H]3O)CC1)c1ccc(Cl)cc1 [Ipatasertib] | 436 | 496 | 445 | 495 | 433 | 483 | 437 | 456 | 433 | 434 | 442
Nc1nc(=S)c2[nH]cnc2[nH]1 [6-Thioguanine] | 484 | 390 | 412 | 457 | 448 | 443 | 432 | 437 | 462 | 476 | 381
COc1cccc(OCCCN)c1-c1cc(Nc2cnc(C#N)cn2)n[nH]1 [Prexasertib] | 172 | 324 | 320 | 371 | 345 | 264 | 274 | 313 | 293 | 334 | 345
C[C@@H](c1ccc2nccn2c1)n1nnc2ncc(-c3cnn(C)c3)nc21 [Savolitinib] | 489 | 497 | > 500 | 489 | > 500 | > 500 | 499 | > 500 | 472 | > 500 | > 500
S=c1nc[nH]c2nc[nH]c12 [6-Mercaptopurine] | > 500 | 402 | 420 | 451 | 460 | 469 | 429 | 449 | 478 | 465 | 443
CC(C)c1c(-c2ccccc2)nc2c(C#N)c[nH]n2c1=O [CPI-455] | > 500 | > 500 | > 500 | 498 | > 500 | > 500 | > 500 | > 500 | 469 | > 500 | > 500
O=C(CCCCCCC(=O)Nc1ccccc1)NO [Vorinostat] | 379 | 408 | 435 | 437 | 421 | 440 | 406 | 428 | 404 | 452 | 400
CN(C)C/C=C/C(=O)Nc1cc2c(Nc3ccc(F)c(Cl)c3)ncnc2cc1O[C@H]1CCOC1 [Afatinib] | 456 | 442 | 352 | 408 | 489 | 342 | 491 | 472 | 253 | 493 | 271
O=C(NOC[C@H](O)CO)c1ccc(F)c(F)c1Nc1ccc(I)cc1F | 488 | 376 | 461 | 480 | 481 | 447 | 471 | 490 | 262 | > 500 | 325
Cc1cccc(-c2nn3c(c2-c2ccnc4ccc(C(N)=O)cc24)CCC3)n1 [Galunisertib] | > 500 | 493 | 481 | > 500 | 482 | > 500 | > 500 | 493 | 465 | > 500 | > 500
c1cn2cc(-c3ccc4cn[nH]c4c3)nc(Nc3ccc(N4CCOCC4)cc3)c2n1 [Entospletinib] | 473 | 481 | 480 | 480 | 496 | 490 | > 500 | 486 | 462 | 480 | > 500
CC(C)c1cc(-c2n[nH]c(=O)n2-c2ccc3c(ccn3C)c2)c(O)cc1O [Ganetespib] | 265 | 340 | 358 | 343 | 345 | 278 | 232 | 269 | 236 | 265 | 243
O=C(/C=C/c1cccc(S(=O)(=O)Nc2ccccc2)c1)NO [Belinostat] | 355 | 386 | 409 | 437 | 425 | 418 | 367 | 401 | 365 | 434 | 359
CC[C@]1(O)C[C@H]2CN(CCc3c([nH]c4ccccc34)[C@@](C(=O)OC)(c3cc4c(cc3OC)N(C=O)[C@H]3[C@@](O)(C(=O)OC)[C@H](OC(C)=O)[C@]5(CC)C=CCN6CC[C@]43[C@@H]65)C2)C1 [Vincristine] | 125 | 209 | 196 | 180 | 193 | 218 | 181 | 174 | 188 | 243 | 222
CC1(C)CCC2(CC1)N[C@@H](C(=O)N[C@@H]1CC[C@@H](C(N)=O)OC1)[C@H](c1ccnc(Cl)c1F)[C@]21C(=O)Nc2cc(Cl)ccc21 [Milademetan] | 313 | 341 | 399 | 376 | 406 | 357 | 294 | 370 | 268 | 367 | 256
C=CC(=O)N1C[C@H](Nc2ncnc3[nH]ccc23)CC[C@@H]1C | 463 | 471 | 482 | 488 | > 500 | > 500 | > 500 | > 500 | 426 | 495 | 460
CNC(=O)c1ccc(Nc2ncc(C(F)(F)F)c(NCc3nccnc3N(C)S(C)(=O)=O)n2)cc1 [Defactinib] | 454 | 454 | 443 | 466 | 469 | 455 | 449 | 443 | 465 | 466 | 442

— the supplement of paper PMC11579375
